Consider 21 molecules from US20220009914A1, “Analogs of Nitrofuran Antibiotics to Combat Resistance” (The Trustees of Indiana University, priority 2020, published 2022).

Where two headings read alike, the source gives them in different places.

The subject of experiment [1] is Pseudomonas aeruginosa strain NCTC 10332 (ATCC #10145). Briefly: bacterial proliferation assay, P. aeruginosa. In kind it is cell-based. The following applies: read-out: Bacterial Proliferation EC50 P. aeruginosa. The protocol:
(§1) All compounds were evaluated for inhibiting the proliferation of E. coli and each of the ESKAPE bacteria. Results presented represent the averages of EC50 values obtained from at least four replicates. Evaluating compounds for inhibition of bacterial cell proliferation.
(§2) Growth Media: E. coli were grown with LB medium and all ESKAPE bacteria were grown in Brain Heart Infusion (BHI) medium (Becton, Dickinson and Company), with all liquid cultures supplemented with 25 mg/L Ca^2+ and 12.5 mg/L Mg^2+ to mimic physiological free concentrations of these cations. A 10 mg/mL Ca^2+ stock solution was prepared by dissolving 1.84 g of CaCl2.2H2O in 50 mL of deionized water, and a 10 mg/mL Mg^2+ stock solution was prepared by dissolving 4.18 g of MgCl2.6H2O in 50 mL deionized water—filter sterilized using 0.2 μm cellulose-acetate filters. 2.5 mL of the sterile 10 mg/mL Ca^2+ stock and 1.25 mL of the sterile 10 mg/mL Mg^2+ stock solutions were added per 1 L of autoclaved LB or BHI media to obtain 25 mg/L Ca^2+ and 12.5 mg/L Mg^2+ ions, respectively.
(§3) General Assay Protocol: Stock bacterial cultures were streaked onto LB or BHI agar plates and grown overnight at 37° C. Fresh aliquots of cation supplemented media were inoculated with single bacterial colonies and the cultures were grown overnight at 37° C. with shaking (240 rpm). The following morning, cultures were diluted 10-fold into fresh media and grown at 37° C. until bacteria had reached mid-log phase growth (OD600˜0.4-0.6). The cultures were then diluted into fresh media to achieve final OD600 readings of 0.017. Aliquots of these diluted cultures (30 μL) were added to clear, flat-bottom 384-well polystyrene plates that were previously stamped with 0.5 μL of test compounds in 20 μL of media (yielding initial OD600=0.01 bacterial cultures). All compounds were tested in dose-response with concentration ranges during the proliferation assays from 100 μM to 46 nM (3-fold dilution series). A second set of baseline control plates were prepared analogously, but without any bacteria added, to correct for possible compound absorbance and/or precipitation. […] Plates were then read at 600 nm using a Molecular Devices SpectraMax Plus384 microplate reader. […] Results presented represent the averages of EC50 values obtained from at least four replicates.
(§4) Evaluating analogs for inhibiting the growth of E. coli and the ESKAPE bacteria. Analogs were initially tested for antibacterial efficacy against representative strains of antibiotic-sensitive E. coli and the ESKAPE bacteria. To determine compound efficacy, bacterial proliferation assays were carried out in liquid media culture supplemented with physiological concentrations of free calcium and magnesium cations. For these assays, bacterial cultures (OD600=0.01) were exposed to test compounds in 8-point, 3-fold dilution series (100 μM to 46 nM concentration range), in 384-well plates. After addition of compounds to cultures, the plates were sealed with Breathe-Easy gas permeable membranes and allowed to grow to mid-log phase (OD600˜0.4-0.6), whereupon final OD600 readings were taken to assess for bacterial growth and inhibition.

The target of another experiment is T1, E. coli GroEL/ES (Escherichia coli, UniProt P0A6F5).
T1 construct: made in house; host or cells: GroEL in NEB 5-alpha E. coli; GroES in E. coli BL21 (DE3)
T1 sequence (P0A6F5 2-548): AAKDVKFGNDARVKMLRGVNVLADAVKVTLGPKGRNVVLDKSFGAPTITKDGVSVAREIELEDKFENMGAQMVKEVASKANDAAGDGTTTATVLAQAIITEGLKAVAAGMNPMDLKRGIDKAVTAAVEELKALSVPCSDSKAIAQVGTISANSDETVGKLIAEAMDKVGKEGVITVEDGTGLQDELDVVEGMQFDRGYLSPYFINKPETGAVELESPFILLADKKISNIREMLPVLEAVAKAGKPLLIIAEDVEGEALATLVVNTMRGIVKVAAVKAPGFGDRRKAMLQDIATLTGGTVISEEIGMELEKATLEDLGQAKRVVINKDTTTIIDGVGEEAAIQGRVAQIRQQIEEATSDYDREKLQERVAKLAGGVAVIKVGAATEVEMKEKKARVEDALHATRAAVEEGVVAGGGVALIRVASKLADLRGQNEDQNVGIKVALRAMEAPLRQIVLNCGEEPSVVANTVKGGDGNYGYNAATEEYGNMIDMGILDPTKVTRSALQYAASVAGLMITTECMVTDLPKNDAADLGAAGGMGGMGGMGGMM
Briefly: GroEL/ES-mediated dMDH refolding assay. In kind it is biochemical. As to the method:
Evaluating compounds for inhibition in the GroEL/ES-mediated dMDH refolding assay. All compounds were evaluated for inhibiting E. coli GroEL/ES-mediated refolding of the denatured MDH reporter enzyme. Reagent preparation: For these assays, four primary reagent stocks were prepared: 1) GroEL/ES-dMDH binary complex stock; 2) ATP initiation stock; 3) EDTA quench stock; 4) MDH enzymatic assay stock. Denatured MDH (dMDH) was prepared by 2-fold dilution of MDH (5 mg/ml, soluble pig heart MDH from Roche, product #10127248001) with denaturant buffer (7 M guanidine-HCl, 200 mM Tris, pH 7.4, and 50 mM DTT). MDH was completely denatured by incubating at room temperature for >45 min. The binary complex solutions were prepared by slowly adding the dMDH stock to a stirring stock with GroEL and GroES in folding buffer (50 mM Tris-HCl, pH 7.4, 50 mM KCl, 10 mM MgC2, and 1 mM DTT). […] For the ATP initiation stock, ATP solid was diluted into folding buffer to a final concentration of 2.5 mM. Quench solution contained 600 mM EDTA (pH 8.0). The MDH enzymatic assay stock consisted of 20 mM sodium mesoxalate and 1.6 mM NADH in reaction buffer (50 mM Tris-HCl, pH 7.4, 50 mM KCl, and 1 mM DTT).
Assay Protocol: First, 30 μL aliquots of the GroEL/ES-dMDH binary complex stocks were dispensed into clear, 384-well polystyrene plates. […] The chaperonin-mediated refolding cycles were initiated by addition of 20 μL of ATP stock (reagent concentrations during refolding cycle: 50 nM GroEL, 60 nM GroES, 12 nM dMDH, 1 mM ATP, and compounds of 100 μM to 46 nM, 3-fold dilution series) and the refolding reactions were incubated at 37° C. […] Next, the assay was quenched by addition of 10 μL of the EDTA stock to give a final concentration of 100 mM in the wells. […] A340 nm measurements were recorded at 0.5 minutes (start point) and at successive time points until the amount of NADH consumed reached ˜90% (end point, generally between 20-35 minutes).
Evaluating analogs for inhibiting GroEL/ES-mediated substrate refolding functions. […] We first evaluated all test compounds in our standard GroEL/ES-mediated refolding assays that employ either malate dehydrogenase (MDH) or rhodanese (Rho) as the denatured substrate reporter enzymes. When denatured, these enzymes are efficiently folded by GroEL/ES in the absence of inhibitors, and thus act as reporters to determine the degree of inhibition against the bacterial chaperonin system. Inhibition was examined in the presence of these two orthogonal substrates in order to support that GroEL/ES inhibitors were on-target. To further support on-target effects against GroEL/ES, we counter-screened for inhibition of the native MDH and Rho enzymatic reporter reactions, where test compounds were added after the denatured MDH and Rho substrate enzymes were completely refolded by GroEL/ES.

The test system of experiment [2] is Klebsiella pneumoniae strain NCTC 9633 (ATCC #13883). Briefly: bacterial proliferation assay, K. pneumoniae. In kind it is cell-based. The following applies: for EC50: read-out: Bacterial Proliferation EC50 K. pneumoniae. As to the method: as §1, §2, §3, §4

As to `CN(C)c1ccc(C(=O)N/N=C/c2ccc(O)c3ncccc23)cc1` [Compound 8, 4-(dimethylamino)-N′-((8-hydroxyquinolin-5-yl)methylene)benzohydrazide], the EC50 in experiment [1] and in experiment [2] (Klebsiella pneumoniae) was over 100 µM each time. On E. coli GroEL/ES, inhibition was half-maximal at 27 µM (IC50).

Turning to `O=C(N/N=C/c1ccc([N+](=O)[O-])o1)c1ccc(NS(=O)(=O)c2ccc(Br)cc2)cc1` [Compound 27, 4-bromo-N-(4-(2-((5-nitrofuran-2-yl)methylene)hydrazine-1-carbonyl)phenyl)benzenesulfonamide], the EC50 in experiment [1] and in experiment [2] (Klebsiella pneumoniae) was over 100 µM each time. In addition, the IC50 at E. coli GroEL/ES is 36 µM.

With `O=C(N/N=C/c1ccc(O)c2ncccc12)c1cccc(Oc2ccccc2)c1` [Compound 11, N′-((8-hydroxyquinolin-5-yl)methylene)-3-phenoxybenzohydrazide], the EC50 in experiment [1] and in experiment [2] (Klebsiella pneumoniae) was over 100 µM in each case. In addition, it took 13 µM to reach half-maximal inhibition on E. coli GroEL/ES (IC50).

With `O=C(N/N=C/c1ccc([N+](=O)[O-])o1)c1ccccc1Oc1ccccc1` [Compound 23, N′-((5-nitrofuran-2-yl)methylene)-2-phenoxybenzohydrazide], the EC50 in experiment [1] and in experiment [2] (Klebsiella pneumoniae) was over 100 µM in each case.

`O=[N+]([O-])c1ccc(O)c2ncccc12` [Nitroxoline, reference compound]: the figures for the EC50 in experiment [1] and in experiment [2] (Klebsiella pneumoniae) were 99 µM and 2.8 µM, respectively. The same molecule yielded an IC50 at E. coli GroEL/ES of 50 µM.

For the molecule `COc1ccc(C(=O)N/N=C/c2ccc(O)cc2)cc1` [Compound 35, N′-(4-hydroxybenzylidene)-4-methoxybenzohydrazide], the EC50 in experiment [1] and in experiment [2] (Klebsiella pneumoniae) was over 100 µM each time. Further, on E. coli GroEL/ES, the IC50 was over 100 µM.

In the case of `O=C(N/N=C/c1ccc(O)c2ncccc12)c1cccs1` [Compound 3, N′-((8-hydroxyquinolin-5-yl)methylene)thiophene-2-carbohydrazide], the results for the EC50 in experiment [1] and in experiment [2] (Klebsiella pneumoniae) were over 100 µM and 99 µM, respectively. Also, inhibition against E. coli GroEL/ES was half-maximal at 65 µM (IC50).

Regarding `O=C(N/N=C/c1ccc([N+](=O)[O-])o1)c1ccncc1` [Compound 19, N′-((5-nitrofuran-2-yl)methylene)isonicotinohydrazide], the EC50 is over 100 µM in experiment [1] and 42 µM in experiment [2] (Klebsiella pneumoniae).

Turning to `O=C(N/N=C/c1ccccc1)c1ccccc1` [Compound 38, N′-benzylidenebenzohydrazide], the EC50 in experiment [1] and in experiment [2] (Klebsiella pneumoniae) was over 100 µM in each case. The IC50 against E. coli GroEL/ES is over 100 µM.

Consider `O=C(N/N=C/c1ccc(O)c2ncccc12)c1ccc(NS(=O)(=O)c2cccs2)cc1` [Compound 13, N-(4-(2-((8-hydroxyquinolin-5-yl)methylene)hydrazine-1-carbonyl)phenyl)thiophene-2-sulfonamide], for which the EC50 in experiment [1] and in experiment [2] (Klebsiella pneumoniae) was over 100 µM each time. This molecule yielded an IC50 against E. coli GroEL/ES of 3.2 µM.

On to `COc1ccc(C(=O)NN)cc1` [Compound 42, reference compound], for which the EC50 in experiment [1] and in experiment [2] (Klebsiella pneumoniae) was over 100 µM throughout. The same molecule came in with an IC50 against E. coli GroEL/ES of over 100 µM.

For `O=C(N/N=C/c1ccc(O)c2ncccc12)c1ccncc1` [Compound 6, N′-((8-hydroxyquinolin-5-yl)methylene)isonicotinohydrazide], the EC50 in experiment [1] and in experiment [2] (Klebsiella pneumoniae) was over 100 µM in each case. This molecule also showed a half-maximal inhibitory concentration (IC50) against E. coli GroEL/ES of over 100 µM.

As to `O=C(N/N=C/c1ccc(O)c2ncccc12)c1ccccc1Oc1ccccc1` [Compound 10, N′-((8-hydroxyquinolin-5-yl)methylene)-2-phenoxybenzohydrazide], the EC50 is 81 µM in experiment [1] and over 100 µM in experiment [2] (Klebsiella pneumoniae). The same molecule came in with an IC50 on E. coli GroEL/ES of 15 µM.

With `O=C(N/N=C/c1ccc([N+](=O)[O-])o1)c1ccc(NS(=O)(=O)c2cccs2)cc1` [Compound 26, N-(4-(2-((5-nitrofuran-2-yl)methylene)hydrazine-1-carbonyl)phenyl)thiophene-2-sulfonamide], the EC50 in experiment [1] and in experiment [2] (Klebsiella pneumoniae) was over 100 µM each time. The IC50 against E. coli GroEL/ES is over 100 µM.

For `O=C(N/N=C/c1ccc(O)c2ccccc12)c1ccccc1` [Compound 30, N′-((4-hydroxynaphthalen-1-yl)methylene)benzohydrazide], the EC50 in experiment [1] and in experiment [2] (Klebsiella pneumoniae) was over 100 µM each time. Moreover, the IC50 against E. coli GroEL/ES was over 100 µM.

Consider `O=C(N/N=C/c1ccc([N+](=O)[O-])o1)c1cccc(Oc2ccccc2)c1` [Compound 24, N′-((5-nitrofuran-2-yl)methylene)-3-phenoxybenzohydrazide], for which the EC50 in experiment [1] and in experiment [2] (Klebsiella pneumoniae) was over 100 µM each time. In addition, the IC50 on E. coli GroEL/ES came out at 71 µM.

For the molecule `COc1ccc(C(=O)N/N=C/c2ccc(O)c3ccccc23)cc1` [Compound 29, N′-((4-hydroxynaphthalen-1-yl)methylene)-4-methoxybenzohydrazide], the EC50 in experiment [1] and in experiment [2] (Klebsiella pneumoniae) was over 100 µM throughout. The same molecule had an IC50 at E. coli GroEL/ES of over 100 µM.

Regarding `O=C(N/N=C/c1ccc([N+](=O)[O-])o1)c1cccs1` [Compound 16, N′-((5-nitrofuran-2-yl)methylene)thiophene-2-carbohydrazide], the EC50 was over 100 µM in experiment [1] and 16 µM in experiment [2] (Klebsiella pneumoniae). In addition, the “inhibition of K. pneumoniae in words” value in experiment [2] was “moderate inhibitors”.

Regarding `O=C(N/N=C/c1ccc([N+](=O)[O-])o1)c1ccccc1` [Compound 18, N′-((5-nitrofuran-2-yl)methylene)benzohydrazide], the EC50 in experiment [1] is over 100 µM; in experiment [2] (Klebsiella pneumoniae) it was 36 µM.

With `COc1ccc(C(=O)N/N=C/c2ccc(O)c3ncccc23)cc1` [Compound 1, N′-((8-hydroxyquinolin-5-yl)methylene)-4-methoxybenzohydrazide], at E. coli GroEL/ES, the IC50 was 77 µM. For the same molecule, the EC50 in experiment [2] stood at 85 µM.

`O=C1CN(/N=C/c2ccc([N+](=O)[O-])o2)C(=O)N1` [Nitrofurantoin, reference compound]: the figures for the EC50 in experiment [1] and in experiment [2] (Klebsiella pneumoniae) were over 100 µM and 40 µM, respectively.

The term IC50 denotes the midpoint of a concentration-inhibition curve. A lower IC50 goes with greater potency.
